In patent EP1433789A1, “Pyrrolopyrazines and their use as selective apoptosis inducers” (Aponetics AG, priority 2002, dated 2004):
pIC50: −log10 of the molar value.

Key:
[1] = test system: A20; experiment: AnnexinV/7-AAD staining; assay type: cell-based, mouse; settings: A20, 10 µM, 24 h treatment
Method: (§1) Adherent cells (1 - 2*10^5) are 24 h prior to compound treatment seeded into 24 well tissue culture plates. Suspension cells are pipetted into P-tubes immediately before treatment. Test compounds are added leading to a final concentrations of 10 µM. After 24 h treatment cells are harvested (in case of adherent cells by trypsinization) and transferred to FACS tubes (BD Biosciences). After centrifugation and removal of the supernatant, 100 µl complete medium containing AnnexinV-GST (10 µg) is added, mixed and incubated at 4°C for 30 minutes. Subsequently, the cells are washed once with medium and incubated with 100 µl anti-GST Alexa 488 (Molecular Probes A-11131) in medium diluted 1:500 for 30 minutes at 4°C. Then, cells are washed once and stained with 1 µg/ml 7-aminoactinomycin D (7-AAD) (Molecular Probes A-1310) in 250 µl medium and analyzed on the FACSCalibur™. AnnexinV is measured in FL1 whereas 7-AAD is measured in FL3. In Table 5 the percentage of positively stained cells after treatment with the respective compounds are indicated. The following scores are used: Score 0 relates to less than 10%, score 1 relates to more than 10% but less than 50% and score 2 relates to more than 50% positivity.

[2] = test system: HeLa; experiment: AnnexinV/7-AAD staining; assay type: cell-based, human; settings: 10 µM, 24 h treatment
Method: as §1

[3] = test system: Ramos; experiment: AnnexinV/7-AAD staining; assay type: cell-based, human; settings: 10 µM, 24 h treatment
Method: as §1

[4] = test system: Jurkat; experiment: AnnexinV/7-AAD staining; assay type: cell-based, human; settings: 10 µM, 24 h treatment
Method: as §1

[5] = test system: KB; experiment: Hoechst 33342 nuclear staining (Table 3); assay type: cell-based, human; set-up: key: 0 relating to no activity; 1 relating to weak activity comprising less than 50% of the cells; score 2 relating to strong activity comprising more than 50% of the cells
Method: (§2) This assay is performed in 96 well tissue culture plates. Appropriate number of cells (adherent cells: 3 - 5*10^3, suspension cells: 8 - 10*10^3) are being seeded out in 80 µl complete medium. Adherent cells are incubated for 24 h for proper spreading out before addition of test compounds while suspension cells are immediately treated with test compounds after seeding out. The test compounds are added in 20 µl complete medium containing max 5% DMSO. The final compound concentrations in the assays are 10 µM, 3 µM,1 µM and 0.3 µM, respectively. After 24 h or 48 h incubation at culture conditions, 10 µl medium containing Hoechst 33342 dye (Sigma B-2261) at 2-5 µg/ml are added to each well. The assay plates are then further incubated for 30 minutes and subsequently analyzed with a standard inverted fluorescence microscope. The readout allows the determination of the fraction of apoptotic nuclei as well as other morphological criteria specific for apoptosis as a function of the treatment. The following scores are used: 0 relating to no activity, 1 relating to weak activity comprising less than 50% of the cells and score 2 relating to strong activity comprising more than 50% of the cells.

[6] = test system: HeLa; experiment: Hoechst 33342 nuclear staining (Table 3); assay type: cell-based, human; set-up: key: 0 relating to no activity; 1 relating to weak activity comprising less than 50% of the cells; score 2 relating to strong activity comprising more than 50% of the cells
Method: as §2

[7] = test system: K562; experiment: Hoechst 33342 nuclear staining (Table 3); assay type: cell-based, human; set-up: key: 0 relating to no activity; 1 relating to weak activity comprising less than 50% of the cells; score 2 relating to strong activity comprising more than 50% of the cells
Method: as §2

[8] = test system: Ramos; experiment: Hoechst 33342 nuclear staining (Table 3); assay type: cell-based, human; set-up: key: 0 relating to no activity; 1 relating to weak activity comprising less than 50% of the cells; score 2 relating to strong activity comprising more than 50% of the cells
Method: as §2

[9] = test system: Jurkat; experiment: Hoechst 33342 nuclear staining (Table 3); assay type: cell-based, human; set-up: key: 0 relating to no activity; 1 relating to weak activity comprising less than 50% of the cells; score 2 relating to strong activity comprising more than 50% of the cells
Method: as §2

[10] = test system: HeLa; experiment: MTS proliferation assay; assay type: cell-based; settings: Homo sapiens, 72 h incubation
Method: (§3) The assay is performed in 96 well tissue culture plates. The cells (range : 1.5*10^3-10^4) are seeded out in 80 µl complete medium 24 h prior to compound treatment. The test compounds are added in 20 µl complete medium containing max 5% DMSO. The final compound concentrations in the assays are 10 µM, 3 µM,1 µM and 0.3 µM, respectively. The assay plates are incubated for 72 h at culture conditions. The MTS reagent is prepared according to the manufacturer's protocol (Promega G1111 ). 20 µl MTS reagent are added to each well, the assay plates are quickly spun and incubated for another 3 h at culture conditions. Subsequently, the plates are shortly shaked and absorption measured with a microplate-reader at 492 nm.

[11] = test system: K562; experiment: MTS proliferation assay; assay type: cell-based; settings: Homo sapiens, K562, 72 h incubation
Method: as §3

[12] = test system: Jurkat; experiment: MTS proliferation assay; assay type: cell-based; settings: Homo sapiens, 72 h incubation
Method: as §3

CC1(C)Cc2ccccc2-c2c(C(=O)C(F)(F)F)c3nc4ccccc4nc3n21 [No. 4, 1-(6,6-Dimethyl-5,6-dihydro-6a,7,12-triaza-dibenzo[a,h]fluoren-13-yl)-2,2,2-trifluoro-ethanone]
percentage of positively stained cells (AnnexinV/7-AAD staining) [1]: 1 (score 1 relates to more than 10% but less than 50%) | percentage of positively stained cells (AnnexinV/7-AAD staining) [2]: 1 (score 1 relates to more than 10% but less than 50%) | percentage of positively stained cells (AnnexinV/7-AAD staining) [3]: 2 (score 2 relates to more than 50% positivity) | percentage of positively stained cells (AnnexinV/7-AAD staining) [4]: 2 (score 2 relates to more than 50% positivity) | Hoechst 33342 nuclear staining ([5]; 24h, conc 0.3 (µM)): 0 | Hoechst 33342 nuclear staining ([5]; 24h, conc 1 (µM)): 0 | Hoechst 33342 nuclear staining ([5]; 24h, conc 3 (µM)): 0 | Hoechst 33342 nuclear staining ([5]; 24h, conc 10 (µM)): 2 (score 2 relating to strong activity comprising more than 50% of the cells) | Hoechst 33342 nuclear staining ([5]; 48h, conc 0.3 (µM)): 0 | Hoechst 33342 nuclear staining ([5]; 48h, conc 1 (µM)): 0 | Hoechst 33342 nuclear staining ([5]; 48h, conc 3 (µM)): 2 (score 2 relating to strong activity comprising more than 50% of the cells) | Hoechst 33342 nuclear staining ([5]; 48h, conc 10 (µM)): 2 (score 2 relating to strong activity comprising more than 50% of the cells) | Hoechst 33342 nuclear staining ([6]; 24h, conc 0.3 (µM)): 0 | Hoechst 33342 nuclear staining ([6]; 24h, conc 1 (µM)): 0 | Hoechst 33342 nuclear staining ([6]; 24h, conc 3 (µM)): 0 | Hoechst 33342 nuclear staining ([6]; 24h, conc 10 (µM)): 2 (score 2 relating to strong activity comprising more than 50% of the cells) | Hoechst 33342 nuclear staining ([6]; 48h, conc 0.3 (µM)): 0 | Hoechst 33342 nuclear staining ([6]; 48h, conc 1 (µM)): 0 | Hoechst 33342 nuclear staining ([6]; 48h, conc 3 (µM)): 2 (score 2 relating to strong activity comprising more than 50% of the cells) | Hoechst 33342 nuclear staining ([6]; 48h, conc 10 (µM)): 2 (score 2 relating to strong activity comprising more than 50% of the cells) | Hoechst 33342 nuclear staining ([7]; K562, 24h, conc 0.3 (µM)): 0 | Hoechst 33342 nuclear staining ([7]; K562, 24h, conc 1 (µM)): 1 (1 relating to weak activity comprising less than 50% of the cells) | Hoechst 33342 nuclear staining ([7]; K562, 24h, conc 3 (µM)): 2 (score 2 relating to strong activity comprising more than 50% of the cells) | Hoechst 33342 nuclear staining ([7]; K562, 24h, conc 10 (µM)): 2 (score 2 relating to strong activity comprising more than 50% of the cells) | Hoechst 33342 nuclear staining ([7]; K562, 48h, conc 0.3 (µM)): 0 | Hoechst 33342 nuclear staining ([7]; K562, 48h, conc 1 (µM)): 2 (score 2 relating to strong activity comprising more than 50% of the cells) | Hoechst 33342 nuclear staining ([7]; K562, 48h, conc 3 (µM)): 2 (score 2 relating to strong activity comprising more than 50% of the cells) | Hoechst 33342 nuclear staining ([7]; K562, 48h, conc 10 (µM)): 2 (score 2 relating to strong activity comprising more than 50% of the cells) | Hoechst 33342 nuclear staining ([8]; 24h, conc 0.3 (µM)): 1 (1 relating to weak activity comprising less than 50% of the cells) | Hoechst 33342 nuclear staining ([8]; 24h, conc 1 (µM)): 2 (score 2 relating to strong activity comprising more than 50% of the cells) | Hoechst 33342 nuclear staining ([8]; 24h, conc 3 (µM)): 2 (score 2 relating to strong activity comprising more than 50% of the cells) | Hoechst 33342 nuclear staining ([8]; 24h, conc 10 (µM)): 2 (score 2 relating to strong activity comprising more than 50% of the cells) | Hoechst 33342 nuclear staining ([8]; 48h, conc 0.3 (µM)): 1 (1 relating to weak activity comprising less than 50% of the cells) | Hoechst 33342 nuclear staining ([8]; 48h, conc 1 (µM)): 2 (score 2 relating to strong activity comprising more than 50% of the cells) | Hoechst 33342 nuclear staining ([8]; 48h, conc 3 (µM)): 2 (score 2 relating to strong activity comprising more than 50% of the cells) | Hoechst 33342 nuclear staining ([8]; 48h, conc 10 (µM)): 2 (score 2 relating to strong activity comprising more than 50% of the cells) | Hoechst 33342 nuclear staining ([9]; 24h, conc 0.3 (µM)): 0 | Hoechst 33342 nuclear staining ([9]; 24h, conc 1 (µM)): 0 | Hoechst 33342 nuclear staining ([9]; 24h, conc 3 (µM)): 2 (score 2 relating to strong activity comprising more than 50% of the cells) | Hoechst 33342 nuclear staining ([9]; 24h, conc 10 (µM)): 2 (score 2 relating to strong activity comprising more than 50% of the cells) | Hoechst 33342 nuclear staining ([9]; 48h, conc 0.3 (µM)): 0 | Hoechst 33342 nuclear staining ([9]; 48h, conc 1 (µM)): 2 (score 2 relating to strong activity comprising more than 50% of the cells) | Hoechst 33342 nuclear staining ([9]; 48h, conc 3 (µM)): 2 (score 2 relating to strong activity comprising more than 50% of the cells) | Hoechst 33342 nuclear staining ([9]; 48h, conc 10 (µM)): 2 (score 2 relating to strong activity comprising more than 50% of the cells) | pIC50 [10]: < 5.00 | pIC50 [11]: < 5.00 | pIC50 [12]: < 5.00
